Measurements published in ChEMBL document CHEMBL3885881, “DrugMatrix”.

Species: Rattus norvegicus
Experiment: DrugMatrix - Regimen: Daily Repeat
Assay type: toxicity, organism-based, Sprague-Dawley
Parameters: regimen Daily Repeat, gender Male, age 6-8 weeks
Settings: in vivo, po, route oral GAVAGE, vehicle .5 % CMC; for ABSOLUTE BASOPHIL / ABSOLUTE EOSINOPHIL / ABSOLUTE LYMPHOCYTE / ABSOLUTE MONOCYTE / ABSOLUTE SEGMENTED NEUTROPHIL / BASOPHIL / EOSINOPHIL / ERYTHROCYTE COUNT / HEMATOCRIT / HEMOGLOBIN / LEUKOCYTE COUNT / LYMPHOCYTE / MEAN CORPUSCULAR HEMOGLOBIN / MEAN CORPUSCULAR HEMOGLOBIN CONCENTRATION / MEAN CORPUSCULAR VOLUME / MONOCYTE / NEUTROPHIL / NUCLEATED RED BLOOD CELLS / PLATELET COUNT: tissue Blood; for ALANINE AMINOTRANSFERASE / ALBUMIN / ALKALINE PHOSPHATASE / ASPARTATE AMINOTRANSFERASE / BLOOD UREA NITROGEN / CARBON DIOXIDE / CHLORIDE / CHOLESTEROL / CREATINE PHOSPHOKINASE / CREATININE / GLUCOSE / LACTATE DEHYDROGENASE / LIPASE / PHOSPHORUS / POTASSIUM / SODIUM / TOTAL BILIRUBIN / TOTAL PROTEIN / URIC ACID: tissue Plasma
[1] = 0 mg/kg, 72 h, dose level Control, time 3 day
[2] = 0 mg/kg, 120 h, dose level Control, time 5 day
[3] = 100 mg/kg, 72 h, dose level Low, time 3 day

CO[C@H]1/C=C/O[C@@]2(C)Oc3c(C)c(O)c4c(c3C2=O)C2=NC3(CCN(CC(C)C)CC3)NC2=C(NC(=O)/C(C)=C\C=C\[C@H](C)[C@H](O)[C@@H](C)[C@@H](O)[C@@H](C)[C@H](OC(C)=O)[C@@H]1C)C4=O [RIFABUTIN]
ABSOLUTE BASOPHIL [1]: 0 CELLS/uL
ABSOLUTE EOSINOPHIL [1]: 0 CELLS/uL
ABSOLUTE LYMPHOCYTE [1]: 12269.67 CELLS/uL
ABSOLUTE MONOCYTE [1]: 160.33 CELLS/uL
ABSOLUTE SEGMENTED NEUTROPHIL [1]: 970 CELLS/uL
BASOPHIL [1]: 0%
EOSINOPHIL [1]: 0%
ERYTHROCYTE COUNT [1]: 5.76 x10E6/uL
HEMATOCRIT [1]: 36.57%
HEMOGLOBIN [1]: 14.22 G/DL
LEUKOCYTE COUNT [1]: 13.4 x10E3/uL
LYMPHOCYTE [1]: 91.67%
MEAN CORPUSCULAR HEMOGLOBIN [1]: 24.67 pg
MEAN CORPUSCULAR HEMOGLOBIN CONCENTRATION [1]: 38.85 G/DL
MEAN CORPUSCULAR VOLUME [1]: 63.52 fL
MONOCYTE [1]: 1.17%
NEUTROPHIL [1]: 7.17%
NUCLEATED RED BLOOD CELLS [1]: 0.33 /100WBC
PLATELET COUNT [1]: 1250.83 x10E3/uL
ALANINE AMINOTRANSFERASE [1]: 49.17 u/L
ALBUMIN [1]: 4.33 G/DL
ALKALINE PHOSPHATASE [1]: 378.5 u/L
ASPARTATE AMINOTRANSFERASE [1]: 82.17 u/L
BLOOD UREA NITROGEN [1]: 15 mg/dL
CARBON DIOXIDE [1]: 34.33 mmol/L
CHLORIDE [1]: 99.17 MEQ/L
CHOLESTEROL [1]: 71.17 mg/dL
CREATINE PHOSPHOKINASE [1]: 258.67 u/L
CREATININE [1]: 0.18 mg/dL
GLUCOSE [1]: 142.67 mg/dL
LACTATE DEHYDROGENASE [1]: 154.33 u/L
LIPASE [1]: 9 u/L
PHOSPHORUS [1]: 11.67 mg/dL
POTASSIUM [1]: 7.13 MEQ/L
SODIUM [1]: 142.22 MEQ/L
TOTAL BILIRUBIN [1]: 0.18 mg/dL
TOTAL PROTEIN [1]: 5.77 G/DL
URIC ACID [1]: 1.55 mg/dL
ABSOLUTE BASOPHIL [2]: 0 CELLS/uL
ABSOLUTE EOSINOPHIL [2]: 23.33 CELLS/uL
ABSOLUTE LYMPHOCYTE [2]: 14943.67 CELLS/uL
ABSOLUTE MONOCYTE [2]: 32 CELLS/uL
ABSOLUTE SEGMENTED NEUTROPHIL [2]: 1084.33 CELLS/uL
BASOPHIL [2]: 0%
EOSINOPHIL [2]: 0.17%
ERYTHROCYTE COUNT [2]: 5.71 x10E6/uL
HEMATOCRIT [2]: 35.28%
HEMOGLOBIN [2]: 14.27 G/DL
LEUKOCYTE COUNT [2]: 16.08 x10E3/uL
LYMPHOCYTE [2]: 93%
MEAN CORPUSCULAR HEMOGLOBIN [2]: 25.02 pg
MEAN CORPUSCULAR HEMOGLOBIN CONCENTRATION [2]: 40.43 G/DL
MEAN CORPUSCULAR VOLUME [2]: 61.82 fL
MONOCYTE [2]: 0.17%
NEUTROPHIL [2]: 6.67%
NUCLEATED RED BLOOD CELLS [2]: 0.33 /100WBC
PLATELET COUNT [2]: 1274 x10E3/uL
ALANINE AMINOTRANSFERASE [2]: 54.17 u/L
ALBUMIN [2]: 4.22 G/DL
ALKALINE PHOSPHATASE [2]: 373.17 u/L
ASPARTATE AMINOTRANSFERASE [2]: 81.83 u/L
BLOOD UREA NITROGEN [2]: 16.67 mg/dL
CARBON DIOXIDE [2]: 30.33 mmol/L
CHLORIDE [2]: 99 MEQ/L
CHOLESTEROL [2]: 71 mg/dL
CREATINE PHOSPHOKINASE [2]: 273.5 u/L
CREATININE [2]: 0.22 mg/dL
GLUCOSE [2]: 141.83 mg/dL
LACTATE DEHYDROGENASE [2]: 153.67 u/L
LIPASE [2]: 10.33 u/L
PHOSPHORUS [2]: 11.38 mg/dL
POTASSIUM [2]: 7.08 MEQ/L
SODIUM [2]: 142.75 MEQ/L
TOTAL BILIRUBIN [2]: 0.18 mg/dL
TOTAL PROTEIN [2]: 6.1 G/DL
URIC ACID [2]: 1.67 mg/dL
ABSOLUTE BASOPHIL [3]: 0 CELLS/uL
ABSOLUTE EOSINOPHIL [3]: 245.33 CELLS/uL
ABSOLUTE LYMPHOCYTE [3]: 18853.33 CELLS/uL
ABSOLUTE MONOCYTE [3]: 248 CELLS/uL
ABSOLUTE SEGMENTED NEUTROPHIL [3]: 1720 CELLS/uL
BASOPHIL [3]: 0%
EOSINOPHIL [3]: 1%
ERYTHROCYTE COUNT [3]: 5.43 x10E6/uL
HEMATOCRIT [3]: 36.1%
HEMOGLOBIN [3]: 14.33 G/DL
LEUKOCYTE COUNT [3]: 21.07 x10E3/uL
LYMPHOCYTE [3]: 89.33%
MEAN CORPUSCULAR HEMOGLOBIN [3]: 26.5 pg
MEAN CORPUSCULAR HEMOGLOBIN CONCENTRATION [3]: 39.7 G/DL
MEAN CORPUSCULAR VOLUME [3]: 66.67 fL
MONOCYTE [3]: 1.33%
NEUTROPHIL [3]: 8.33%
NUCLEATED RED BLOOD CELLS [3]: 0.67 /100WBC
PLATELET COUNT [3]: 1207.33 x10E3/uL
ALANINE AMINOTRANSFERASE [3]: 65.67 u/L
ALBUMIN [3]: 4.37 G/DL
ALKALINE PHOSPHATASE [3]: 375 u/L
ASPARTATE AMINOTRANSFERASE [3]: 96.33 u/L
BLOOD UREA NITROGEN [3]: 13 mg/dL
CARBON DIOXIDE [3]: 25.67 mmol/L
CHLORIDE [3]: 103 MEQ/L
CHOLESTEROL [3]: 84.33 mg/dL
CREATINE PHOSPHOKINASE [3]: 380 u/L
CREATININE [3]: 0.35 mg/dL
GLUCOSE [3]: 158 mg/dL
LACTATE DEHYDROGENASE [3]: 212.67 u/L
LIPASE [3]: 10.67 u/L
PHOSPHORUS [3]: 12.8 mg/dL
POTASSIUM [3]: 6.31 MEQ/L
SODIUM [3]: 145.97 MEQ/L
TOTAL BILIRUBIN [3]: 0.23 mg/dL
TOTAL PROTEIN [3]: 6.1 G/DL
URIC ACID [3]: 1.97 mg/dL
